One test deals with human cyclin D1-CDK4 (Homo sapiens, UniProt P11802). Nature of the test: FlashPlate kinase assay, cyclin D1-CDK4. The format is biochemical. The note with it: Rb protein substrate, 1 μM ATP, 33P-ATP, 30 minutes room temperature; read-out: CDK4 IC50.
The target of the next test is human cyclin B-CDK1 (Homo sapiens, UniProt P06493). In words: FlashPlate kinase assay, cyclin B-CDK1. It is filed as biochemical. The note with it: Rb protein substrate, 1 μM ATP, 33P-ATP, 30 minutes room temperature.
human cyclin B-CDK1, sequence (P06493 whole entry): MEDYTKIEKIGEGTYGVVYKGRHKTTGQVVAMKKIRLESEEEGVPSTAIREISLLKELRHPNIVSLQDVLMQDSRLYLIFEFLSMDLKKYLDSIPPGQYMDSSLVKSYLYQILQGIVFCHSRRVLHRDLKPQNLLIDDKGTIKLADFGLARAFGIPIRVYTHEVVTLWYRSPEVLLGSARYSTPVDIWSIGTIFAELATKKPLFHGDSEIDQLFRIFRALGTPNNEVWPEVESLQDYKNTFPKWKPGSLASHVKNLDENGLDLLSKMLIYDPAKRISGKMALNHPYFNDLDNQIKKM
human cyclin B-CDK1, sequence (P14635 whole entry partner): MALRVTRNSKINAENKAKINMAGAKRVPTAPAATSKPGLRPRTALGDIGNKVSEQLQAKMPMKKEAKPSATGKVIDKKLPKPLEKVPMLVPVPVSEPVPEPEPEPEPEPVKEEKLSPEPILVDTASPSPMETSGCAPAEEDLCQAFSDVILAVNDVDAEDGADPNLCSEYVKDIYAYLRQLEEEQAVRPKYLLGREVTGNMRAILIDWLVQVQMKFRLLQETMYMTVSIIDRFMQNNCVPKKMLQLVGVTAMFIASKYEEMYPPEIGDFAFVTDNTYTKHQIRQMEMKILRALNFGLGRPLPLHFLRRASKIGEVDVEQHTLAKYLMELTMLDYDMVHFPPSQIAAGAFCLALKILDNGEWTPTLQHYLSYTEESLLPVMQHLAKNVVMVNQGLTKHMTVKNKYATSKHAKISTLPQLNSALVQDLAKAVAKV
In the next test the target is human cyclin E-CDK2 (Homo sapiens, UniProt P24941). In words: FlashPlate kinase assay, cyclin E-CDK2. The format is biochemical. Conditions: Rb protein substrate, 1 μM ATP, 33P-ATP, 30 minutes room temperature.
For test [1], the system named is HCT116, a colorectal carcinoma cell line. Nature of the test: Tetrazolium dye (MTT) proliferation assay. The format is cell-based. Conditions: Homo sapiens, HCT-116; HCT116 cells, inhibition of cell proliferation. On the procedure: Proliferation was evaluated by the tetrazolium dye assay according to the procedure of Denizot and Lang (Denizot, F. and Lang, R. J Immunol Methods 1986, 89, 271–277). The cell line used was HCT116, a colorectal carcinoma cell line obtained from the American Type Cell Culture Collection (ATCC; Rockville, Md.). The cells were grown in McCoy's 5A medium supplemented with 10% FCS and L-glutamine.
Cells were plated at the appropriate seeding density to give logarithmic growth over the course of the assay in a 96-well tissue culture plate. Plates were incubated overnight at 37° C. in a humidified incubator with 5% CO2. The next day, test compounds were serially diluted to four times the final concentration in the appropriate medium containing 1.2% DMSO. One-fourth final volume of each dilution was added in duplicate to the plates containing cells. The same volume of 1.2% DMSO in medium was added to a row of “control wells” such that the final concentration of DMSO in each well was 0.3%. Wells to which no cells were added served as the “blank.” Wells to which no inhibitor was added served as “no inhibitor control.” The plates were) returned to the incubator, and at set time points (determined by their growth curves) plates were analyzed as described below.
3-(4,5-dimethylthiazole-2-yl)-2,5-diphenyl-2H-tetrazolium bromide (thiazolyl blue; MTT; Sigma) was added to each well to yield a final concentration of 1 mg/ml. Plates were returned to the incubator for 2.5–3 hours at 37° C. The MTT-containing medium was removed and the resulting formazan metabolite was solubilized in 100% ethanol with shaking for 15 minutes at room temperature. Absorbance readings were taken in a microtiter plate reader (Dynatech and Molecular Devices plate readers were used interchangeably) at a wavelength of 570 nm with a 650 nm reference. Percent inhibition (% INH) is calculated by subtracting the absorbance of the blank well from all wells, then subtracting the ratio of the average absorbance of each test duplicate (SAVE) by the average of the controls (CAVE) from 1.00. The final number is then multiplied by 100 (% INH=(1.00−SAVE/CAVE)×100). The concentration at which 50% inhibition of cell proliferation is obtained (the IC50) is determined from the linear regression of a plot of the logarithm of the concentration versus percent inhibition.

Structures are written as SMILES.

human cyclin D1-CDK4, sequence (P11802 whole entry): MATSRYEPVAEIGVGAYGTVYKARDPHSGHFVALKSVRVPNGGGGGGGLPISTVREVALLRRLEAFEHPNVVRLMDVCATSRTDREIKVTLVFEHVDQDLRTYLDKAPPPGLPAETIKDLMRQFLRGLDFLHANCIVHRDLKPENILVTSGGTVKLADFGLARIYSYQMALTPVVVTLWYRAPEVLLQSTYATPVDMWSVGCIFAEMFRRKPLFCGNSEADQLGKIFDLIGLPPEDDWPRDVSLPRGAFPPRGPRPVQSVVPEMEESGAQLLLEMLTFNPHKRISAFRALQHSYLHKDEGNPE
human cyclin D1-CDK4, sequence (P24385 whole entry partner): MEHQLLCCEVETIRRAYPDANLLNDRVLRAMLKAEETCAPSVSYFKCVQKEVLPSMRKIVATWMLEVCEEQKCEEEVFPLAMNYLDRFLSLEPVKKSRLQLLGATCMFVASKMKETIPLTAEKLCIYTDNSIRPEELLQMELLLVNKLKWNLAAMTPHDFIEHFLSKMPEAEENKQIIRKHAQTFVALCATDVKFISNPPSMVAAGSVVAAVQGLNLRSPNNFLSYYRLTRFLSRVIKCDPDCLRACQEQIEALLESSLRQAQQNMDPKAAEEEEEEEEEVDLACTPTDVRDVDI

As for `COc1ccc(C(=O)c2sc(Nc3ccc(N4CCC(N5CCCC(O)C5)CC4)cc3)nc2N)cc1F` (stereo not shown) [Example 36, {4-Amino-2-[4-(3-hydroxy-[1,4′]bipiperidinyl-1′-yl)-phenylamino]-thiazol-5-yl}-(3-fluoro-4-methoxy-phenyl)-methanone], the IC50 (usually the concentration at which inhibition is half-maximal) on human cyclin D1-CDK4 was determined as 3630 nM; against human cyclin B-CDK1, 1730 nM; against human cyclin E-CDK2, 3000 nM; in test [1], 9 nM.
Consider `Nc1nc(Nc2ccc(N3CCC(N4CCCC(O)C4)CC3)cc2)sc1C(=O)c1ccc2c(c1)OCO2` (stereo not shown) [Example 37, {4-Amino-2-[4-(3-hydroxy-[1,4′]bipiperidinyl-1′-yl)-phenylamino]-thiazol-5-yl}-benzo[1,3]dioxol-5-yl-methanone], for which the IC50 on human cyclin D1-CDK4 turned out to be 3520 nM; at human cyclin B-CDK1, 1630 nM; on human cyclin E-CDK2, 520 nM; in test [1], 100 nM.
On the same counts, the results for `Nc1nc(Nc2ccc(N3CCC(N4CCCC(O)C4)CC3)cc2)sc1C(=O)c1ccc(O)cc1` (stereo not shown) [Example 40, {4-Amino-2-[4-(3-hydroxy-[1,4′]bipiperidinyl-1′-yl)-phenylamino]-thiazol-5-yl}-(4-hydroxy-phenyl)-methanone] are 52 nM, 640 nM, 5110 nM and 9480 nM.
Consider `CN(C)C1CCN(c2ccc(Nc3nc(N)c(C(=O)c4cccc(F)c4)s3)cc2)CC1` [Example 41, {4-Amino-2-[4-(4-dimethylamino-piperidin-1-yl)-phenylamino]-thiazol-5-yl}-(3-fluoro-phenyl)-methanone], for which the IC50 on human cyclin D1-CDK4 came to 2 nM; on human cyclin B-CDK1 it was 268 nM; against human cyclin E-CDK2, 888 nM; in test [1] it was 1410 nM.
For `CN(C)C1CCN(c2ccc(Nc3nc(N)c(C(=O)c4ccc5c(c4)OCO5)s3)cc2)CC1` [Example 43, {4-Amino-2-[4-(4-dimethylamino-piperidin-1-yl)-phenylamino]-thiazol-5-yl}-benzo[1,3]dioxol-5-yl-methanone], in that order: 7 nM, 500 nM, 3500 nM and 1610 nM.
With `CN(C)C1CCN(c2ccc(Nc3nc(N)c(C(=O)c4ccc5c(c4)OCCO5)s3)cc2)CC1` [Example 44, {4-Amino-2-[4-(4-dimethylamino-piperidin-1-yl)-phenylamino]-thiazol-5-yl}-(2,3-dihydro-benzo[1,4]dioxin-6-yl)-methanone], the IC50 at human cyclin D1-CDK4 was determined as 16 nM; against human cyclin B-CDK1, 1250 nM; against human cyclin E-CDK2, 5130 nM; in test [1], 1720 nM.
Turning to `COc1cccc(C(=O)c2sc(Nc3ccc(N4CCC(N(C)C)CC4)cc3)nc2N)c1` [Example 45, {4-Amino-2-[4-(4-dimethylamino-piperidin-1-yl)-phenylamino]-thiazol-5-yl}-(3-methoxy-phenyl)-methanone], the IC50 is 5 nM on human cyclin D1-CDK4, 2440 nM at human cyclin B-CDK1, 5160 nM on human cyclin E-CDK2 and 2460 nM in test [1].
For `CN(C)C1CCN(c2ccc(Nc3nc(N)c(C(=O)c4cccc(O)c4)s3)cc2)CC1` [Example 50, {4-Amino-2-[4-(4-dimethylamino-piperidin-1-yl)-phenylamino]-thiazol-5-yl}-(3-hydroxy-phenyl)-methanone], in that order: 7 nM, 810 nM, 2790 nM and 3120 nM.
On the same counts, the results for `N#Cc1cccc(C(=O)c2sc(Nc3ccc(N4CCC(N5CCCC5)CC4)cc3)nc2N)c1` [Example 72, 3-{4-Amino-2-[4-(4-pyrrolidin-1-yl-piperidin-1-yl)-phenylamino]-thiazole-5-carbonyl}-benzonitrile] are 17 nM, 702 nM, 2050 nM and 2500 nM.
For `N#Cc1cccc(C(=O)c2sc(Nc3ccc(N4CCC(N5CCCC(O)C5)CC4)cc3)nc2N)c1` (stereo not shown) [Example 80, 3-{4-Amino-2-[4-(3-hydroxy-[1,4′]bipiperidinyl-1′-yl)-phenylamino]-thiazole-5-carbonyl}-benzonitrile], in that order: 17 nM, 1370 nM, 2580 nM and 3490 nM.
As to `Nc1nc(Nc2ccc(N3CCC(N4CCCC(O)C4)CC3)cc2)sc1C(=O)c1cccc(O)c1` (stereo not shown) [Example 81, {4-Amino-2-[4-(3-hydroxy-[1,4′]bipiperidinyl-1′-yl)-phenylamino]-thiazol-5-yl}-(3-hydroxy-phenyl)-methanone], the IC50 worked out at 19 nM on human cyclin D1-CDK4, 1610 nM against human cyclin B-CDK1, 3450 nM against human cyclin E-CDK2 and 6020 nM in test [1].
On the same counts, the results for `Nc1nc(Nc2ccc(N3CCC(N4CCCC4)CC3)cc2)sc1C(=O)c1cccc([N+](=O)[O-])c1` [Example 90, {4-Amino-2-[4-(4-pyrrolidin-1-yl-piperidin-1-yl)-phenylamino]-thiazol-5-yl}-(3-nitro-phenyl)-methanone] are 7 nM, 580 nM, 1670 nM and 2820 nM.
In the case of `Nc1nc(Nc2ccc(N3CCC(N4CCCC(O)C4)CC3)cc2)sc1C(=O)c1cccc([N+](=O)[O-])c1` (stereo not shown) [Example 91, {4-Amino-2-[4-(3-hydroxy-[1,4′]bipiperidinyl-1′-yl)-phenylamino]-thiazol-5-yl}-(3-nitro-phenyl)-methanone], the IC50 at human cyclin D1-CDK4 came to 9 nM; against human cyclin B-CDK1, 710 nM; against human cyclin E-CDK2, 1820 nM; in test [1] it was 1640 nM.
For `CN(C)C1CCN(c2ccc(Nc3nc(N)c(C(=O)c4cccc([N+](=O)[O-])c4)s3)cc2)CC1` [Example 92, {4-Amino-2-[4-(4-dimethylamino-piperidin-1-yl)-phenylamino]-thiazol-5-yl}-(3-nitro-phenyl)-methanone], in that order: 15 nM, 870 nM, 1600 nM and 2900 nM.
Take `COc1ccc(C(=O)c2sc(Nc3ccc(N4CCC(N5CCCC5)CC4)cc3)nc2N)cc1[N+](=O)[O-]` [Example 107, {4-Amino-2-[4-(4-pyrrolidin-1-yl-piperidin-1-yl)-phenylamino]-thiazol-5-yl}-(4-methoxy-3-nitro-phenyl)-methanone]: the IC50 at human cyclin D1-CDK4 amounted to 38 nM; at human cyclin B-CDK1 it was 1000 nM; at human cyclin E-CDK2, 2390 nM; in test [1] it was 3680 nM.
On the same counts, the results for `COc1ccc(C(=O)c2sc(Nc3ccc(N4CCC(N5CCCCC5)CC4)cc3)nc2N)cc1[N+](=O)[O-]` [Example 108, [4-Amino-2-(4-[1,4′]bipiperidinyl-1′-yl-phenylamino)-thiazol-5-yl]-(4-methoxy-3-nitro-phenyl)-methanone] are 34 nM, 1290 nM, 2610 nM and 996 nM.
For `COc1ccc(C(=O)c2sc(Nc3ccc(N4CCC(N(C)C)CC4)cc3)nc2N)cc1[N+](=O)[O-]` [Example 113, {4-Amino-2-[4-(4-dimethylamino-piperidin-1-yl)-phenylamino]-thiazol-5-yl}-(4-methoxy-3-nitro-phenyl)-methanone], in that order: 45 nM, 940 nM, 7270 nM and 1740 nM.
Take `CCc1cccc(C(=O)c2sc(Nc3ccc(N4CCC(N5CCCC5)CC4)cc3)nc2N)c1` [Example 114, {4-Amino-2-[4-(4-pyrrolidin-1-yl-piperidin-1-yl)-phenylamino]-thiazol-5-yl}-(3-ethyl-phenyl)-methanone]: the IC50 on human cyclin D1-CDK4 stood at 12 nM; against human cyclin B-CDK1 it was 2710 nM; against human cyclin E-CDK2 it was 945 nM; in test [1], 1370 nM.
On the same counts, the results for `CCc1cccc(C(=O)c2sc(Nc3ccc(N4CCC(N(C)C)CC4)cc3)nc2N)c1` [Example 115, {4-Amino-2-[4-(4-dimethylamino-piperidin-1-yl)-phenylamino]-thiazol-5-yl}-(3-ethyl-phenyl)-methanone] are 10 nM, 2800 nM, 1040 nM and 1240 nM.

Values taken from patent US7211576B2, “Diaminothiazoles” (Hoffmann-La Roche Inc., priority 2004, dated 2007).
